This passage reports T/C results from PubChem BioAssay AID310 (DTP/NCI, 2004).

For the experiment, the system named is C3AKF1 mice, osteogenic sarcoma HE10734 s.c., tumor weight T/C. As to the kind of experiment: NCI In Vivo Anticancer Drug Screen. Data for tumor model Osteogenic Sarcoma HE 10734 (subcutaneous) in C3AKF1 (CHKRF1) mice. Particulars: endpoint: mean tumor weight, schedule: Q01DX010 (ip), higher = larger tumour. As to the method:
The antitumor activity of compounds was measured in mice bearing transplantable tumors. Survival or tumor size were measured and the results are expressed as the measurement made in the treated group (T) divided by the measurement made in the vehicle treated control group (C). The tumor model used in this assay is Osteogenic Sarcoma HE 10734 (subcutaneous) in C3AKF1 (CHKRF1) mice

Setting [1] is: dose: 75.0 mg/kg/injection, vehicle: saline.
The mark [2] stands for this setting: dose: 150.0 mg/kg/injection, vehicle: saline.
[3] abbreviates: dose: 300.0 mg/kg/injection, vehicle: saline.
Where [4] appears, read: dose: 125.0 mg/kg/injection, vehicle: saline.
The mark [5] stands for this setting: dose: 250.0 mg/kg/injection, vehicle: saline.
[6] abbreviates: dose: 500.0 mg/kg/injection, vehicle: saline.
Setting [7] is: dose: 1000.0 mg/kg/injection, vehicle: saline.
Where [8] appears, read: dose: 100.0 mg/kg/injection, vehicle: saline.
The mark [9] stands for this setting: dose: 25.0 mg/kg/injection, vehicle: saline.
[10] abbreviates: dose: 50.0 mg/kg/injection, vehicle: saline.
Where [11] appears, read: dose: 450.0 mg/kg/injection, vehicle: saline.
[12] abbreviates: dose: 62.0 mg/kg/injection, vehicle: saline.
The mark [13] stands for this setting: dose: 12.5 mg/kg/injection, vehicle: saline.

Values joined by “and” are separate entries in the source; they are usually repeats but may differ in a detail not shown here. Identical values can stand only once. Records with an inconclusive call do not appear. Where a SMILES comes first, the peptide text is derived from it. [ ]: non-standard residue; d: D form. Ac5c = NC1(C(=O)O)CCCC1

In the case of `Nc1nc(N)c(N=O)c(Nc2ccc(Br)cc2)n1`, the T/C is, setting by setting: (dose: 22.0 mg/kg/injection, vehicle: carboxymethylcellulose (CMC)) 94 % of control; (dose: 44.0 mg/kg/injection, vehicle: carboxymethylcellulose (CMC)) 66 % of control; (dose: 88.0 mg/kg/injection, vehicle: carboxymethylcellulose (CMC)) 62 % of control; (dose: 175.0 mg/kg/injection, vehicle: carboxymethylcellulose (CMC)) 58 % of control and 61 % of control; (dose: 265.0 mg/kg/injection, vehicle: carboxymethylcellulose (CMC)) 33 % of control; (dose: 395.0 mg/kg/injection, vehicle: carboxymethylcellulose (CMC)) 34 % of control.

Take `[I][Hg][CH2]C1COCC([CH2][Hg][I])O1.[I][Hg][CH2]C1COCC([CH2][Hg][I])O1` (configuration not stated): the T/C by setting is: (dose: 6.0 mg/kg/injection, vehicle: saline) 83 % of control; (dose: 12.0 mg/kg/injection, vehicle: saline) 52 % of control.

With `CC[C@H]1CN2CCc3cc(OC)c(OC)cc3[C@@H]2C[C@@H]1C[C@H]1NCCc2cc(OC)c(OC)cc21`, the T/C (dose: 1.0 mg/kg/injection, vehicle: saline) was 82 % of control and the T/C (dose: 2.0 mg/kg/injection, vehicle: saline) was 82 % of control.

In the case of `O=c1[nH]cnc2n[nH]nc12`, the T/C is 80 % of control under setting [1]; 103 % of control under setting [2]; 87 % of control under setting [3]; 99 % of control (dose: 600.0 mg/kg/injection, vehicle: saline).

Turning to `CCOC(=O)NC`, the T/C under setting [4] is 104 % of control, the T/C under setting [5] is 67 % of control, the T/C under setting [6] is 59 % of control and the T/C under setting [7] is 27 % of control.

For `NC(N)=N/N=C/C=N/N=C(N)N`, where the note is “dose: 30.0 mg/kg/injection, vehicle: carboxymethylcellulose (CMC)”, the T/C was 81 % of control.

Turning to `NCC(=O)NC1(C(=O)O)CCCC1` (H-Gly-[Ac5c]-OH), the T/C is 79 % of control (dose: 66.0 mg/kg/injection, vehicle: saline); 58 % of control under setting [8]; 35 % of control under setting [2]; 20 % of control and 27 % of control (dose: 225.0 mg/kg/injection, vehicle: saline).

In the case of `ClCCn1cnc2c(SCc3ccccc3)ncnc21`, the T/C under setting [9] is 75 % of control; the T/C under setting [10] is 64 % of control; the T/C under setting [8] is 56 % of control; the T/C under setting [3] was 69 % of control; the T/C under setting [11] was 65 % of control.

`O=[N+]([O-])c1ccccc1CSc1ncnc2nc[nH]c12`: the T/C under setting [12] was 106 % of control, the T/C under setting [4] was 81 % of control and the T/C under setting [5] was 28 % of control.

`O=P(c1ccccc1)(N1CC1)N1CC1`: the T/C (dose: 3.13 mg/kg/injection, vehicle: saline) is 106 % of control; the T/C (dose: 6.25 mg/kg/injection, vehicle: saline) is 93 % of control; the T/C under setting [13] is 105 % of control; the T/C under setting [9] is 68 % of control and 71 % of control.

Consider `CCCCCCCCCCCCO[P+](=O)OCCCCCCCCCCCC`, for which the T/C is, setting by setting: (dose: 65.0 mg/kg/injection, vehicle: carboxymethylcellulose (CMC)) 81 % of control; (dose: 95.0 mg/kg/injection, vehicle: carboxymethylcellulose (CMC)) 55 % of control; (dose: 145.0 mg/kg/injection, vehicle: carboxymethylcellulose (CMC)) 51 % of control; (dose: 220.0 mg/kg/injection, vehicle: carboxymethylcellulose (CMC)) 48 % of control; (dose: 222.0 mg/kg/injection, vehicle: carboxymethylcellulose (CMC)) 36 % of control.

With `Clc1ncnc2c1ncn2C1CCCO1` (configuration not stated), the T/C by setting is: (dose: 37.0 mg/kg/injection, vehicle: saline) 77 % of control and 80 % of control; under setting [11], 69 % of control.

For `NC(CCSCc1ccc(N(CCCl)CCCl)cc1)C(=O)O` (configuration not stated), the T/C by setting is: (dose: 4.5 mg/kg/injection, vehicle: saline) 74 % of control; (dose: 9.0 mg/kg/injection, vehicle: saline) 105 % of control and 118 % of control; (dose: 54.0 mg/kg/injection, vehicle: saline) 39 % of control.

For the compound `Fc1ccc(CSc2ncnc3c2ncn3C2CCCCO2)cc1` (configuration not stated), the T/C under setting [12] was 81 % of control, the T/C under setting [4] was 71 % of control, the T/C under setting [5] is 93 % of control and the T/C under setting [6] was 28 % of control.

Consider `O=C1N(Cl)C(=O)C(c2ccc(Cl)cc2)(c2ccc(Cl)cc2)N1Cl`, for which the T/C is 70 % of control (dose: 10.0 mg/kg/injection, vehicle: saline); 58 % of control (dose: 20.0 mg/kg/injection, vehicle: saline); 90 % of control (dose: 40.0 mg/kg/injection, vehicle: saline); 67 % of control and 77 % of control (dose: 80.0 mg/kg/injection, vehicle: saline); 48 % of control (dose: 120.0 mg/kg/injection, vehicle: saline); 55 % of control (dose: 180.0 mg/kg/injection, vehicle: saline). The T/C (dose: 270.0 mg/kg/injection, vehicle: saline) was 53 % of control.

In the case of `O=C(O)CC(O)(CC(=O)O)C(=O)O.[Ga]`, the T/C (dose: 12.5 mg/kg/injection, vehicle: carboxymethylcellulose (CMC)) is 84 % of control; the T/C (dose: 25.0 mg/kg/injection, vehicle: carboxymethylcellulose (CMC)) is 84 % of control; the T/C (dose: 50.0 mg/kg/injection, vehicle: carboxymethylcellulose (CMC)) was 39 % of control.

Regarding `CC1(C)CC(C)(c2ccccc2)c2ccccc21` (configuration not stated), the T/C is 92 % of control under setting [1], 70 % of control under setting [2] and 52 % of control under setting [3].

In the case of `CC(C)([NH-])CO.CC(C)([NH-])CO.[Cl][Cd][Cl]`, the T/C (dose: 2.5 mg/kg/injection, vehicle: carboxymethylcellulose (CMC)) is 88 % of control; the T/C (dose: 5.0 mg/kg/injection, vehicle: carboxymethylcellulose (CMC)) was 57 % of control; the T/C (dose: 10.0 mg/kg/injection, vehicle: carboxymethylcellulose (CMC)) is 25 % of control.

Turning to `CS(=O)(=O)OCC(O)C(O)COS(C)(=O)=O` (configuration not stated), the T/C by setting is: under setting [4], 121 % of control; under setting [5], 111 % of control; under setting [6], 81 % of control; under setting [7], 101 % of control.

Turning to `COc1ccc(Nc2ccnc3cc(Cl)ccc23)cc1CN(CCCl)CCCl`, the T/C is, setting by setting: (dose: 0.75 mg/kg/injection, vehicle: saline) 73 % of control; (dose: 1.5 mg/kg/injection, vehicle: saline) 57 % of control; (dose: 3.0 mg/kg/injection, vehicle: saline) 69 % of control.

On to `Nc1ncnc2c1ncn2C1CCCO1` (configuration not stated), for which the T/C under setting [1] is 86 % of control and the T/C under setting [2] is 54 % of control.

On to `CCN(CC)Cc1cc(Nc2c3ccccc3nc3cc(Cl)ccc23)ccc1O`, for which the T/C under setting [13] is 78 % of control, the T/C under setting [9] was 111 % of control and the T/C under setting [10] was 70 % of control.
